From the supplement of paper PMC4862054

How the values were obtained:
Settings in all cases: incubation time: 72 h
CAL-148 [1] = test: normalised viability (% of control), CellTiter-Blue; higher = more viable cells (about 100 = DMSO control)
Description: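 DSRT, CellTiter-Blue viability, 72 h incubation. Signal is normalised to DMSO and benzethonium chloride controls. Value is the normalised response at dose 9.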

CAL-148 [2] = test: normalised response (% of control), CellTiter-Glo; higher = more viable cells (100 = DMSO, 0 = benzethonium chloride kill control)
Description: (§1)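 DSRT, 72 h incubation, CellTox Green / CellTiter-Glo readout. Signal is normalised to DMSO and benzethonium chloride controls. Value is the normalised response at the highest dose.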

MCF-10A = test: as above
Description: as §1

HDQ-P1 = test: as above
Description: as §1

CAL-51 = test: as above
Description: as §1

BT-549 = test: as above
Description: as §1

BT-474 = test: as above
Description: as §1

MDA-MB-468 = test: as above
Description: as §1

MDA-MB-436 = test: as above
Description: as §1

MDA-MB-453 = test: as above
Description: as §1

HCC1937 = test: as above
Description: as §1

HCC1143 = test: as above
Description: as §1

CAL-120 = test: as above
Description: as §1

Hs578T = test: as above
Description: as §1

SK-BR-3 = test: as above
Description: as §1

MDA-MB-231 = test: as above
Description: as §1

DU-4475 = test: as above
Description: as §1

CAL-85-1 = test: as above
Description: as §1

MFM-223 = test: as above
Description: as §1

HCC1599 = test: as above
Description: as §1

Structure (SMILES) | normalised viability (CAL-148 [1]) [%] | normalised response (CAL-148 [2]) [%] | normalised response (MCF-10A) [%] | normalised response (HDQ-P1) [%] | normalised response (CAL-51) [%] | normalised response (BT-549) [%] | normalised response (BT-474) [%] | normalised response (MDA-MB-468) [%] | normalised response (MDA-MB-436) [%] | normalised response (MDA-MB-453) [%] | normalised response (HCC1937) [%] | normalised response (HCC1143) [%] | normalised response (CAL-120) [%] | normalised response (Hs578T) [%] | normalised response (SK-BR-3) [%] | normalised response (MDA-MB-231) [%] | normalised response (DU-4475) [%] | normalised response (CAL-85-1) [%] | normalised response (MFM-223) [%] | normalised response (HCC1599) [%]
CC1=C2C[C@H]3[C@@H](CC=C4C[C@@H](O)CC[C@@]43C)[C@@H]2CC[C@]12O[C@@H]1C[C@H](C)CN[C@H]1[C@H]2C [Cyclopamine] (10000 nM) | 116 | 110 | 108 | 86 | 106 | 58 | 113 | 51.5 | 84.6 | 103 | 97.1 | 93.2 | 103 | 101 | 102 | 106 | 105 | 104 | 101 | 107
Cn1cnc2c(F)c(Nc3ccc(Br)cc3Cl)c(C(=O)NOCCO)cc21 [Selumetinib] (10000 nM) | 89.9 | 76.1 | 31.8 | 56.3 | 106 | 84.1 | 55.5 | 69.9 | 85.4 | 93.8 | 76.3 | 76.6 | 66.8 | 76.4 | 92 | 62.4 | 0.53 | 61 | 67.9 | 72.7
O=NN(CCCl)C(=O)NCCCl [Carmustine] (10000 nM) | 109 | 100 | 93.8 | 96.1 | 116 | 110 | 91.5 | 97.3 | 96.7 | 87.3 | 99.6 | 106 | 96.2 | 101 | 95.2 | 99.9 | 96.5 | 101 | 94.4 | 104
CC(C)(C)c1cnc(CSc2cnc(NC(=O)C3CCNCC3)s2)o1 [SNS-032] (10000 nM) | 21.8 | 77.1 | 17.1 | 24.3 | 16.7 | 5.15 | 31.8 | 6.47 | 18.2 | 56.4 | 38.6 | 15.1 | 43.3 | 8.34 | 4.26 | 8.77 | 10.3 | 7.47 | 32 | 7.5
O=C1CN2Cc3c(ccc(Cl)c3Cl)N=C2N1 [Anagrelide] (10000 nM) | 115 | 96.4 | 105 | 90.9 | 88 | 97.3 | 88 | 92 | 96 | 100 | 97.9 | 93 | 96.5 | 80.5 | 102 | 99.5 | 98.9 | 94.4 | 99.6 | 97
Nc1nc2[nH]cnc2c(=S)[nH]1 [Thioguanine] (10000 nM) | 42 | 68.2 | 66.9 | 31.8 | 28.6 | 48.5 | 40.8 | 48.9 | 31.3 | 79 | 35.8 | 66.7 | 37 | 33.2 | 62.1 | 33.4 | 24.1 | 51.7 | 72.9 | 28.2
Nc1ncn([C@@H]2O[C@H](CO)[C@@H](O)[C@H]2O)c(=O)n1 [Azacitidine] (10000 nM) | 82.8 | 87.7 | 77 | 63 | 91.2 | 45 | 71.4 | 17 | 54.7 | 102 | 69.3 | 75 | 61.6 | 58.9 | 92.4 | 68 | 60.7 | 106 | 53.8 | 76.1
CC1(C)CNc2cc(NC(=O)c3cccnc3NCc3ccncc3)ccc21 [Motesanib] (10000 nM) | 91.8 | 86.9 | 95.4 | 92.5 | 122 | 97 | 90.9 | 87.6 | 95 | 91.6 | 97.8 | 94.8 | 103 | 91.8 | 86.3 | 93.5 | 98.6 | 95.8 | 88.1 | 107
Oc1ncnc2[nH]ncc12 [Allopurinol] (10000 nM) | 118 | 106 | 105 | 95.1 | 131 | 102 | 97.9 | 97.9 | 101 | 111 | 102 | 104 | 99.1 | 102 | 114 | 103 | 99.7 | 106 | 103 | 102
Cc1sc2c(c1C)C(c1ccc(Cl)cc1)=N[C@@H](CC(=O)OC(C)(C)C)c1nnc(C)n1-2 [(+)JQ1] (10000 nM) | 27.6 | 49.1 | 46.5 | 71.1 | 47.5 | 35.7 | 66.1 | 36.6 | 76.4 | 32.6 | 68.2 | 58.3 | 78 | 41.3 | 53.2 | 64.2 | 20.4 | 27.9 | 45.1 | 85.5
Cn1cc(C2=Nc3cc(NC(=O)C(N)C4CCCCC4)cc4c3C2=CNNC4=O)cn1 (stereo not given) (10000 nM) | 28.1 | 53.1 | 38.6 | 48.6 | 25.2 | 12.1 | 38.3 | 12.4 | 22.6 | 46.6 | 21.2 | 14.7 | 42.8 | 26.6 | 8.5 | 37.3 | 48.4 | 26.7 | 50.4 | 10.9
